Where a name gives a salt, the structure may show the parent alone.

This experiment deals with T1, CCR2 (Homo sapiens, UniProt P41597).
T1 construct: host or cells: THP-1 (human monocytic cell line)
T1 sequence (P41597 1-360 isoform P41597-2): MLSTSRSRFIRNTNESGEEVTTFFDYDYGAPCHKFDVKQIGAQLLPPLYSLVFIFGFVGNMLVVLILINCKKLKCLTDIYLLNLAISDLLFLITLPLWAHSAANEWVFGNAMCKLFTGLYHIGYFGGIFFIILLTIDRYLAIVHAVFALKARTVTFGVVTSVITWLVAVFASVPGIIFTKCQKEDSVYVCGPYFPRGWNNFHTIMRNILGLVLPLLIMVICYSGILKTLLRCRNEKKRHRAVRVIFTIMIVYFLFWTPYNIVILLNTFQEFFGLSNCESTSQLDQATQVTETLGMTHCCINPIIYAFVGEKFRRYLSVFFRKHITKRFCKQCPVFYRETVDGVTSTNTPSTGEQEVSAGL
Kind of experiment: MCP-1 Receptor Binding Assay in THP-1 Cells (125I labeled MCP-1). Conditions: 0.5 nM 125I labeled MCP-1, 2 hours at 30° C., read-out: Inhibition of MCP-1 Binding IC50, CCR2 Binding. The method, then:
Compounds of the invention were subjected to various representative biological tests. […] MCP-1 Receptor Binding Assay in THP-1 Cells
Human monocytic cell line THP-1 cells were obtained from American Type Culture Collection (Manassas, Va., USA). […] The cell density was maintained […].
1 μM cold MCP-1 was used for nonspecific binding.
Broadly, the IC50 is the concentration that inhibits the measured activity by half. On to `Nc1cccc(C2CCC(N3CC(NC(=O)CNC(=O)c4cc(F)cc(C(F)(F)F)c4)C3)CC2)n1` (centres unmarked) [Example 34, N-({1-[4-(6-Amino-pyridin-2-yl)-cyclohexyl]-azetidin-3-ylcarbamoyl}-methyl)-3-fluoro-5-trifluoromethyl-benzamide], for which the IC50 was 120 nM.
As to `O=C(CNC(=O)c1cccc(C(F)(F)F)c1)NC1CN(C2CCC(c3cccnc3O)CC2)C1` (centres unmarked) [Example 10, N-({1-[4-(2-Hydroxy-pyridin-3-yl)-cyclohexyl]-azetidin-3-ylcarbamoyl}-methyl)-3-trifluoromethyl-benzamide], the IC50 is 970 nM.
As for `O=C(CNC(=O)c1cccc(C(F)(F)F)c1)NC1CN(C2CCC(c3noc(N4CCCC4)n3)CC2)C1` (mixture of isomers) [Example 59, N-({1-[4-(5-Pyrrolidin-1-yl-[1,2,4]oxadiazol-3-yl)-cyclohexyl]-azetidin-3-ylcarbamoyl}-methyl)-3-trifluoromethyl-benzamide], the IC50 came to 400 nM.
For `CS(=O)(=O)Nc1cccnc1C1CCC(N2CC(NC(=O)CNC(=O)c3cccc(C(F)(F)F)c3)C2)CC1` (centres unmarked) [Example 19, N-({1-[4-(3-Methanesulfonylamino-pyridin-2-yl)-cyclohexyl]-azetidin-3-ylcarbamoyl}-methyl)-3-trifluoromethyl-benzamide], the IC50 came to 1900 nM.
Turning to `O=C(CNC(=O)c1cccc(C(F)(F)F)c1)NC1CN(C2CCC(c3ccc(O)cn3)CC2)C1` (centres unmarked) [Example 4, N-({1-[4-(5-Hydroxy-pyridin-2-yl)-cyclohexyl]-azetidin-3-ylcarbamoyl}-methyl)-3-trifluoromethyl-benzamide hemisuccinate salt], the IC50 came to 13 nM.
On to `N#CCn1cc(C2CCC(N3CC(NC(=O)CNC(=O)c4cccc(C(F)(F)F)c4)C3)CC2)ccc1=O` (centres unmarked) [Example 41, N-({1-[4-(1-Cyanomethyl-6-oxo-1,6-dihydro-pyridin-3-yl)-cyclohexyl]-azetidin-3-ylcarbamoyl}-methyl)-3-trifluoromethyl-benzamide], for which the IC50 worked out at 130 nM.
For `CN(C)c1ccncc1C1CCC(N2CC(NC(=O)CNC(=O)c3cccc(C(F)(F)F)c3)C2)CC1` (centres unmarked) [Example 29b, N-({1-[4-(4-Dimethylamino-pyridin-3-yl)-cyclohexyl]-azetidin-3-ylcarbamoyl}-methyl)-3-trifluoromethyl-benzamide], the IC50 is 10000 nM.
As to `Nc1noc(N)c1C1CCC(N2CC(NC(=O)CNC(=O)c3cccc(C(F)(F)F)c3)C2)CC1` (centres unmarked) [Example 55, N-({1-[4-(3,5-Diimino-isoxazolidin-4-yl)-cyclohexyl]-azetidin-3-ylcarbamoyl}-methyl)-3-trifluoromethyl-benzamide], the IC50 is 125 nM.
In the case of `COc1ccc(C2(F)CCC(N3CC(NC(=O)CNC(=O)c4cccc(C(F)(F)F)c4)C3)CC2)cn1` (single isomer, unassigned) [Example 64a, N-({1-[4-Fluoro-4-(6-methoxy-pyridin-3-yl)-cyclohexyl]-azetidin-3-ylcarbamoyl}-methyl)-3-trifluoromethyl-benzamide], the IC50 was 110 nM.
As for `Nc1ncccc1C1CCC(N2CC(NC(=O)CNC(=O)c3cccc(C(F)(F)F)c3)C2)CC1` (single isomer, unassigned) [Example 31a, N-({1-[4-(2-Amino-pyridin-3-yl)-cyclohexyl]-azetidin-3-ylcarbamoyl}-methyl)-3-trifluoromethyl-benzamide], the IC50 came out at 150 nM.
As to `Nc1ccc(C2CCC(N3CC(NC(=O)CNC(=O)c4cccc(C(F)(F)F)c4)C3)CC2)cn1` (single isomer, unassigned) [Example 30a, N-({1-[4-(6-Amino-pyridin-3-yl)-cyclohexyl]-azetidin-3-ylcarbamoyl}-methyl)-3-trifluoromethyl-benzamide], the 50% inhibitory concentration (IC50) was 189 nM.
On to `Nc1ccncc1C1CCC(N2CC(NC(=O)CNC(=O)c3cccc(C(F)(F)F)c3)C2)CC1` (single isomer, unassigned) [Example 27a, N-({1-[4-(4-Amino-pyridin-3-yl)-cyclohexyl]-azetidin-3-ylcarbamoyl}-methyl)-3-trifluoromethyl-benzamide], for which the IC50 came to 2700 nM.
On to `O=C(CNC(=O)c1cccc(C(F)(F)F)c1)NC1CN(C2CCC(c3c[nH]c(=O)s3)CC2)C1` (centres unmarked) [Example 54, N-({1-[4-(2-Oxo-2,3-dihydro-thiazol-5-yl)-cyclohexyl]-azetidin-3-ylcarbamoyl}-methyl)-3-trifluoromethyl-benzamide], for which the IC50 was 340 nM.
With `Cc1cc(C2CCC(N3CC(NC(=O)CNC(=O)c4cccc(C(F)(F)F)c4)C3)CC2)c[nH]c1=O` (single isomer, unassigned) [Example 44a, N-({1-[4-(5-Methyl-6-oxo-1,6-dihydro-pyridin-3-yl)-cyclohexyl]-azetidin-3-ylcarbamoyl}-methyl)-3-trifluoromethyl-benzamide], the IC50 was determined as 250 nM.

For the origin of these results see patent publication US8269015B2, “4-azetidinyl-1-heteroaryl-cyclohexane antagonists of CCR2” (Janssen Pharmaceutica N.V., priority 2009, dated 2012).
